PubChem BioAssay (NCI)
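48-hour exposure; five concentrations; linearly interpolated endpoints. TGI: concentration producing complete growth inhibition.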

Columns and labels:
Experiment in all cases: NCI-60 cell line screen, 48 h
[1] = tested on: 786-0 renal
[2] = tested on: A498 renal
[3] = tested on: A549 NSCLC
[4] = tested on: ACHN renal
[5] = tested on: CAKI-1 renal
[6] = tested on: CCRF-CEM leukemia
[7] = tested on: COLO 205 colon
[8] = tested on: DU-145 prostate
[9] = tested on: EKVX NSCLC
[10] = tested on: HCC-2998 colon
[11] = tested on: HCT-116 colon
[12] = tested on: HCT-15 colon
[13] = tested on: HL-60(TB) leukemia
[14] = tested on: HOP-62 NSCLC
[15] = tested on: HOP-92 NSCLC
[16] = tested on: HS 578T breast
[17] = tested on: HT29 colon
[18] = tested on: IGROV1 ovarian
[19] = tested on: K-562 leukemia
[20] = tested on: KM12 colon
[21] = tested on: LOX IMVI melanoma
[22] = tested on: MALME-3M melanoma
[23] = tested on: MCF7 breast
[24] = tested on: MDA-MB-231 breast
[25] = tested on: MDA-MB-435
[26] = tested on: MDA-N
[27] = tested on: MOLT-4 leukemia
[28] = tested on: NCI-H226 lung
[29] = tested on: NCI-H23 lung
[30] = tested on: NCI-H460 lung
[31] = tested on: NCI-H522 lung
[32] = tested on: NCI/ADR-RES ovarian
[33] = tested on: OVCAR-3 ovarian
[34] = tested on: OVCAR-4 ovarian
[35] = tested on: OVCAR-5 ovarian
[36] = tested on: OVCAR-8 ovarian
[37] = tested on: PC-3 prostate
[38] = tested on: RPMI-8226 leukemia
[39] = tested on: RXF 393 renal
[40] = tested on: SF-268 CNS
[41] = tested on: SF-295 CNS
[42] = tested on: SK-MEL-2 melanoma
[43] = tested on: SK-MEL-28 melanoma
[44] = tested on: SK-MEL-5 melanoma
[45] = tested on: SK-OV-3 ovarian
[46] = tested on: SN12C renal
[47] = tested on: SNB-19 CNS
[48] = tested on: SNB-75 CNS
[49] = tested on: SW-620 colon
[50] = tested on: T-47D breast
[51] = tested on: TK-10 renal
[52] = tested on: U251 CNS
[53] = tested on: UACC-257 melanoma
[54] = tested on: UACC-62 melanoma
[55] = tested on: UO-31 renal
[56] = tested on: M14 melanoma
[57] = tested on: SF-539 CNS

With CN(CCCNCc1ccccn1)Cc1ccccc1O the TGI [1] was over 100 µM, the TGI [2] was over 100 µM and the TGI [3] was over 100 µM. The TGI [4] was 42.3 µM, the TGI [5] was over 100 µM and the TGI [6] was over 100 µM. For the same molecule, the TGI [7] was 94.4 µM, the TGI [8] was over 100 µM and the TGI [9] was over 100 µM. The TGI [10] was over 100 µM, the TGI [11] was over 100 µM and the TGI [12] was over 100 µM. The TGI [13] was over 100 µM, the TGI [14] was over 100 µM and the TGI [15] was over 100 µM. The TGI [16] was over 100 µM, the TGI [17] was 94.4 µM and the TGI [18] was over 100 µM. For the same molecule, the TGI [19] was over 100 µM, the TGI [20] was over 100 µM and the TGI [21] was over 100 µM. For the same molecule, the TGI [22] was over 100 µM, the TGI [23] was over 100 µM and the TGI [24] was over 100 µM. For the same molecule, the TGI [25] was over 100 µM, the TGI [26] was over 100 µM and the TGI [27] was over 100 µM. For the same molecule, the TGI [28] was 97.8 µM, the TGI [29] was 55.6 µM and the TGI [30] was over 100 µM. It also gave a TGI [31] of over 100 µM, a TGI [32] of 95.2 µM and a TGI [33] of over 100 µM. The TGI [34] was over 100 µM, the TGI [35] was over 100 µM and the TGI [36] was over 100 µM. For the same molecule, the TGI [37] was over 100 µM, the TGI [38] was over 100 µM and the TGI [39] was over 100 µM. It also gave a TGI [40] of over 100 µM, a TGI [41] of 54.7 µM and a TGI [42] of over 100 µM. The TGI [43] was over 100 µM, the TGI [44] was 51.6 µM and the TGI [45] was over 100 µM. For the same molecule, the TGI [46] was over 100 µM, the TGI [47] was 68.5 µM and the TGI [48] was over 100 µM. For the same molecule, the TGI [49] was over 100 µM, the TGI [50] was over 100 µM and the TGI [51] was 64.8 µM. For the same molecule, the TGI [52] was over 100 µM, the TGI [53] was 92.2 µM and the TGI [54] was 43.2 µM. It also gave a TGI [55] of 19.8 µM.
Work on CN(CCCN=C=S)CCCN1c2ccccc2CCc2ccccc21 yielded a TGI [1] of 3.08 µM, a TGI [2] of 3.07 µM and a TGI [3] of 3.16 µM. The TGI [4] was 3.12 µM, the TGI [5] was 3.21 µM and the TGI [6] was over 100 µM. It also gave a TGI [8] of 3.22 µM, a TGI [10] of 2.69 µM and a TGI [11] of 3.09 µM. For the same molecule, the TGI [12] was 2.9 µM, the TGI [15] was 4.29 µM and the TGI [16] was 4.03 µM. For the same molecule, the TGI [17] was 2.94 µM, the TGI [19] was over 100 µM and the TGI [20] was 3.5 µM. The TGI [56] was 3.16 µM, the TGI [22] was 3.48 µM and the TGI [24] was 3.29 µM. The TGI [25] was 3.27 µM, the TGI [26] was 3.16 µM and the TGI [27] was over 100 µM. It also gave a TGI [29] of 3.11 µM, a TGI [30] of 3.45 µM and a TGI [32] of 2.67 µM. For the same molecule, the TGI [33] was 3.14 µM, the TGI [34] was 3.56 µM and the TGI [35] was 3.35 µM. The TGI [36] was 3.43 µM, the TGI [39] was 3.39 µM and the TGI [40] was 3.24 µM. It also gave a TGI [57] of 3.46 µM, a TGI [42] of 3.38 µM and a TGI [44] of 3.43 µM. The TGI [45] was 3.16 µM, the TGI [46] was 3.17 µM and the TGI [47] was 3.14 µM. For the same molecule, the TGI [50] was 3.92 µM, the TGI [51] was 3.26 µM and the TGI [52] was 3.26 µM. It also gave a TGI [53] of 3.85 µM, a TGI [54] of 3.2 µM and a TGI [55] of 3 µM.
